Data as given in article PMC9371699, “Cell-penetrating peptides enhance peptide vaccine accumulation and persistence in lymph nodes to drive immunogenicity” (Proceedings of the National Academy of Sciences of the …, 2022).
Ends that are not written are not given here.

How the values were obtained:
[1] = T cell activation-based serum stability assay; type: in vitro ADME; conditions: 30 µM peptide in RPMI-1640 + 10% fresh mouse serum, 24 h, 37 °C, vs fresh peptide; titrated on splenocytes, CD69 read-out by flow cytometry
Experimental: Peptides are also highly susceptible to proteolytic cleavage, resulting in a short half-life in vivo ([65], [66]). […] To test if the association of antigen-CPPs with serum components impacts peptide antigen stability, we used an in vitro antigen-presentation assay to functionally determine if T cells could still be activated by antigen-CPPs after incubation with serum proteases ([22]). Free gp100 peptide or gp100-CPP peptides were incubated for 24 h in 10% mouse serum, then added to splenocytes at titrated doses for 1 h to allow antigen uptake and processing, followed by culture with pmel-1 (gp100–specific) T cells for 24 h and assessment of pmel-1 CD69 expression (Fig. 6A and SI Appendix, Fig. S13). From these cocultures, we determined the peptide antigen concentration required for 50% of maximal CD69 up-regulation by the pmel-1 T cells (EC50) (Fig. 6B) and the change in EC50 for peptides preincubated with serum (ΔEC50) (Fig. 6C). […] In contrast, the ΔEC50 for gp100-CPPs ranged from 0.76 to 3.4 (Fig. 6C).
Following prime and boost of mice with gp100 peptides, CD8^+ T cell responses were confirmed on day −1. […] CD69^+/CD8^+ T cell responses were measured by flow cytometry.
Figure S13. […] Shown are plots of pmel activation, measured via CD69 upregulation, against the concentration of the fresh or serum -treated construct. […]

proteinase K = proteinase K (Parengyodontium album, UniProt P06873); test: Proteolysis LC-MS assay; type: in vitro ADME; conditions: 5 µM peptide in PBS, 0.5 ng proteinase K, 37 °C, 2 hours, time points 0, 30, 60, 120 min, LC-MS (Q-TOF), no other serum components
Description: To gain more direct evidence of altered peptide stability, we used quadrupole time-of-flight liquid chromatography/MS (LC-QTOF-MS), to directly detect proteolytic degradation of pAntp and MPG conjugates in serum. […] We hypothesized that enhanced stability of the conjugates could reflect an intrinsic protective peptidase-/protease-blocking effect by the CPP or be an indirect effect mediated by binding of the conjugate to other serum proteins that sterically interfere with protease attack on the peptide. To distinguish these possibilities, we performed a similar experiment assessing proteolytic stability in the presence of purified proteinase K—a promiscuous protease that cleaves peptide bonds following hydrophobic amino acids—in the absence of other serum components.
C18 column (2 μm particle size, 15 cm × 50 μm ID; Thermo Fisher Scientific). Mobile phase A was 0.1% formic acid in ultrapure water (v/v) and mobile phase B was 80% acetonitrile, 0.1% formic acid in ultrapure water (v/v). The nano-LC method was as follows: 1% B ramping in a linear manner to 41% B in A over 120 minutes, flow rate: 300 nL/min. Data were processed using PEAKS proteomics software.
Serum stability LC-MS assay. […]
Proteolysis LC-MS Assay. […] They were then resuspended 50:50 water:acetonitrile with 0.1% trifluoroacetic acid and reaction analyzed on an Agilent 6550 iFunnel Q -TOF MS. […]

proteinase K, sequence (P06873 106-384, species assumed): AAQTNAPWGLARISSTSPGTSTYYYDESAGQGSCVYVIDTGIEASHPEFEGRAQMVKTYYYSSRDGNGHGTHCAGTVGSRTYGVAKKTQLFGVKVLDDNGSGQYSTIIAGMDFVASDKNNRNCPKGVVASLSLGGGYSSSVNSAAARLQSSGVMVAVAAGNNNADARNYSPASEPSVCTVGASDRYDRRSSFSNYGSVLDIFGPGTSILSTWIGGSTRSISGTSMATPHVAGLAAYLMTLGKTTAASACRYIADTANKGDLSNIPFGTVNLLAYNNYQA

## AVGALEGPRNQDWLGVPRQL-NH2 [gp100]
[1]
  increase in EC50 (CD69 up-regulation) after incubation in serum: ~16 fold
Proteinase K
  proteolytic stability with purified proteinase K: rapid degradation
